The structures appear in SMILES notation. *1 amine or outer side, *2 acyl side, *3 side chain or, on linkers, in order; H or OH if unused. Where a SMILES comes first, the peptide text is derived from it. Bridges are numbered along the chain shown (N, C = ends). [ ]: non-standard residue; d: D form. The star is where a group is joined. DOTA = O=C(O)CN1CCN(CC(=O)O)CCN(CC(=O)*)CCN(CC(=O)O)CC1; Pro(trans-4-F) = O=C(O)[C@@H]1C[C@@H](F)CN1; Pro(4R-NH2) = N[C@H]1CN[C@H](C(=O)O)C1; Dopa = N[C@@H](Cc1ccc(O)c(O)c1)C(=O)O; NMeY = CN[C@@H](Cc1ccc(O)cc1)C(=O)O; NMeR = CN[C@@H](CCCNC(=N)N)C(=O)O; Hyp = O=C(O)[C@@H]1C[C@@H](O)CN1; Pentanoyl(4-Me) = CC(C)CCC(=O)*; Cit = NC(=O)NCCC[C@H](N)C(=O)O; Butoxycarbonyl = CCCCOC(=O)*; X9 = OC[C@H](CS[*:1])N[*:2]; Api = NC1(C(=O)O)CCNCC1; Nva = CCC[C@H](N)C(=O)O; Pentanoyl = CCCCC(=O)*; CO = O=C([*:1])[*:2]; Ahx = NCCCCCC(=O)O; NHBu = CCCCN*

Assay [1] deals with T1, uPAR-expressing HEC-265 human endometrial adenocarcinoma cells (Homo sapiens, UniProt Q03405).
T1 construct: Cell surface uPAR-expressing HEC-265 human endometrial adenocarcinoma cells; host or cells: HEC-265
T1 sequence (Q03405 23-335): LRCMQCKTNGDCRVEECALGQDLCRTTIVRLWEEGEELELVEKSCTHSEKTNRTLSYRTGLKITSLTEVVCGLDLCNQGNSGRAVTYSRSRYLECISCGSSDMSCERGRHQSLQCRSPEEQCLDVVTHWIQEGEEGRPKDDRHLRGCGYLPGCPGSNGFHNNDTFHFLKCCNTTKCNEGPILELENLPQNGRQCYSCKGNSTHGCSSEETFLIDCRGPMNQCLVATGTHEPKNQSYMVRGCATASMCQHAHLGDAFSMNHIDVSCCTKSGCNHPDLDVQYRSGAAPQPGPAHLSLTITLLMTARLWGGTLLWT
In words: Competitive FACS binding assay. The note with it: pIC50 category of FACS binding. The gist of the method:
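Competitive displacement of a 10 nM biotinylated peptide from HEC-265 cells (1 h, 4 °C, PBS/1% BSA), detected via APC-streptavidin by flow cytometry. pIC50 from four-parameter logistic fit of median fluorescence versus concentration.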
(In general: In flow cytometry, cells or beads pass a laser one at a time.)

The next assay deals with T2, human uPAR (uPAR-Fc) (Homo sapiens, UniProt Q03405).
T2 construct: comprising amino acids Leu23-Arg303 according to UniProt entry Q03405.1; purchased R&D Systems 10378-UK-100
T2 sequence (Q03405 23-303): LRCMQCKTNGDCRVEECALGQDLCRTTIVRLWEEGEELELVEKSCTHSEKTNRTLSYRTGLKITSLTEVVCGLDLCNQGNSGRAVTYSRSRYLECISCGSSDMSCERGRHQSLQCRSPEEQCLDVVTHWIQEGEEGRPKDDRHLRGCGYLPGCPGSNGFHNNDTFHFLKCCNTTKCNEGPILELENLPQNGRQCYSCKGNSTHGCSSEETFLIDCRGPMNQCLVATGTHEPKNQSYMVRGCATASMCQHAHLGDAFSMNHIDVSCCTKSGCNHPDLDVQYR
In words: Surface plasmon resonance (SPR) assay, single cycle kinetics. The note with it: pKD category for uPAR SPR activity assay; uPAR-Fc on Protein A-Chip, 25°C; read-out: pKD CAT (converted). The class given is binding. The gist of the method:
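uPAR-Fc (Leu23-Arg303 extracellular domains, human IgG1 Fc) captured on Protein A chip to ~2000 RU; single-cycle kinetics at 25°C in HEPES running buffer pH 7.4 with 0.1% DMSO. KD from double-referenced sensorgrams fitted to 1:1 Langmuir model, reported as pKD.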

In general, IC50 refers to the concentration needed to halve the response being measured. A lower IC50 goes with greater potency in that assay. `CCCCC(=O)N[C@H]1CSSC[C@@H](C(N)=O)NC(=O)[C@H](CCC)NC(=O)[C@H]([C@@H](C)CC)NC(=O)[C@@H]2C[C@@H](O)CN2C(=O)[C@@H]2CCCN2C(=O)[C@H](Cc2ccccc2)NC(=O)[C@H](Cc2ccc(O)cc2)NC(=O)[C@H](CCCCNC(=O)CN2CCN(CC(=O)O)CCN(CC(=O)O)CCN(CC(=O)O)CC2)NC(=O)[C@H](CC(N)=O)NC1=O` [UPAR-283, Pent-[Cys-Asn-Lys(DOTA)-Tyr-Phe-Pro-Hyp-Ile-Nva-Cys]-NH2] (Pentanoyl-CNK(DOTA)YFP[Hyp]I[Nva]C-NH2; disulfide 1-10) gave an IC50 in assay [1] of no more than 10 nM. For the same molecule, the Kd on human uPAR (uPAR-Fc) is less than 1.58 nM.

With `CCCCOC(=O)N[C@H]1CSSC[C@@H](C(N)=O)NC(=O)[C@H](CCC)NC(=O)[C@H]([C@@H](C)CC)NC(=O)[C@@H]2C[C@@H](O)CN2C(=O)[C@@H]2C[C@@H](O)CN2C(=O)[C@H](Cc2ccccc2)NC(=O)[C@H](Cc2ccc(O)c(O)c2)NC(=O)[C@H](CCCCNC(=O)CN2CCN(CC(=O)O)CCN(CC(=O)O)CCN(CC(=O)O)CC2)NC(=O)[C@H]([C@@H](C)O)NC1=O` [UPAR-284, Butoc-[Cys-Thr-Lys(DOTA)-Dopa-Phe-Hyp-Hyp-Ile-Nva-Cys]-NH2] (Butoxycarbonyl-CTK(DOTA)[Dopa]F[Hyp][Hyp]I[Nva]C-NH2; disulfide 1-10), the IC50 in assay [1] is no more than 10 nM. Besides, the Kd on human uPAR (uPAR-Fc) was less than 1.58 nM.

In assay [1], `CC[C@H](C)[C@@H]1NC(=O)[C@@H](C)NC(=O)[C@@H]2CCCN2C(=O)[C@H](Cc2ccccc2)NC(=O)[C@H](Cc2ccc(O)cc2)N(C)C(=O)[C@H](CCC(N)=O)NC(=O)[C@H](CCCNC(N)=O)NC(=O)[C@@H](NC(=O)CCC(C)C)CSSC[C@@H](C(N)=O)NC(=O)[C@H](CC(C)C)NC1=O` [UPAR-285, iHex-[Cys-Cit-Gln-Nmy-Phe-Pro-ala-Ile-Leu-Cys]-NH2] ({Pentanoyl(4-Me)}-C[Cit]Q[NMeY]FP[dA]ILC-NH2; disulfide 1-10) gave an IC50 of no less than 126 nM. Moreover, the Kd on human uPAR (uPAR-Fc) is greater than 100 nM.

`CCCCNC(=O)N[C@H]1CSSC[C@@H](C(N)=O)NC(=O)[C@H](CC(C)C)NC(=O)[C@H]([C@@H](C)CC)NC(=O)[C@@H](C)NC(=O)[C@@H]2CCCN2C(=O)[C@H](Cc2ccccc2)NC(=O)[C@H](Cc2ccc(O)cc2)NC(=O)[C@H](CCC(N)=O)NC(=O)[C@H](CCCNC(N)=O)NC1=O` [UPAR-286, nBuCAyl-[Cys-Cit-Gln-Tyr-Phe-Pro-ala-Ile-Leu-Cys]-NH2] ({NHBu-CO}-C[Cit]QYFP[dA]ILC-NH2; disulfide 1-10) had a 50% inhibitory concentration (IC50) in assay [1] of no more than 10 nM. Besides, the Kd on human uPAR (uPAR-Fc) is less than 1.58 nM.

The molecule `CC[C@H](C)[C@@H]1NC(=O)[C@@H](C)NC(=O)[C@@H]2CCCN2C(=O)[C@H](Cc2ccccc2)NC(=O)[C@H](Cc2ccc(O)cc2)NC(=O)[C@H](CCC(N)=O)NC(=O)[C@H](CCCNC(=N)N)N(C)C(=O)[C@@H](NC(=O)CCC(C)C)CSSC[C@@H](C(N)=O)NC(=O)[C@H](CC(C)C)NC1=O` [UPAR-287, iHex-[Cys-Nmr-Gln-Tyr-Phe-Pro-ala-Ile-Leu-Cys]-NH2] ({Pentanoyl(4-Me)}-C[NMeR]QYFP[dA]ILC-NH2; disulfide 1-10) showed an IC50 in assay [1] of no less than 126 nM. The Kd at human uPAR (uPAR-Fc) is greater than 100 nM.

As for `CCCCC(=O)N[C@H]1CSSC[C@@H](C(N)=O)NC(=O)[C@H](CCC)NC(=O)[C@H]([C@@H](C)CC)NC(=O)[C@@H]2C[C@@H](O)CN2C(=O)[C@@H]2CCCN2C(=O)[C@H](Cc2ccccc2)NC(=O)[C@H](Cc2ccc(O)cc2)NC(=O)C2(CCN(C(=O)CN3CCN(CC(=O)O)CCN(CC(=O)O)CCN(CC(=O)O)CC3)CC2)NC(=O)[C@H]([C@@H](C)O)NC1=O` [UPAR-288, Pent-[Cys-Thr-Apc(DOTA)-Tyr-Phe-Pro-Hyp-Ile-Nva-Cys]-NH2] (Pentanoyl-CT[Api](DOTA)YFP[Hyp]I[Nva]C-NH2; disulfide 1-10), the IC50 in assay [1] is no more than 10 nM. In addition, on human uPAR (uPAR-Fc), the Kd is less than 1.58 nM.

Take `CCCCOC(=O)N[C@H]1CSSC[C@@H](C(N)=O)NC(=O)[C@H](CCC)NC(=O)[C@H]([C@@H](C)CC)NC(=O)[C@@H]2C[C@@H](F)CN2C(=O)[C@@H]2CCCN2C(=O)[C@H](Cc2ccccc2)NC(=O)[C@H](Cc2ccc(O)cc2)NC(=O)[C@H](CCCCNC(=O)CN2CCN(CC(=O)O)CCN(CC(=O)O)CCN(CC(=O)O)CC2)NC(=O)[C@H]([C@@H](C)O)NC1=O` [UPAR-289, Butoc-[Cys-Thr-Lys(DOTA)-Tyr-Phe-Pro-4Tfp-Ile-Nva-Cys]-NH2] (Butoxycarbonyl-CTK(DOTA)YFP[Pro(trans-4-F)]I[Nva]C-NH2; disulfide 1-10): the half-inhibitory concentration (IC50) in assay [1] is no more than 10 nM. Moreover, the Kd at human uPAR (uPAR-Fc) was less than 1.58 nM.

Molecule `CC[C@H](C)[C@@H]1NC(=O)[C@H](C)NC(=O)[C@@H]2CCCN2C(=O)[C@H](Cc2ccccc2)NC(=O)[C@H](Cc2ccc(O)cc2)NC(=O)[C@H](CCC(N)=O)NC(=O)[C@H](CCCNC(=N)N)NC(=O)[C@@H](NC(=O)[C@H](CC(C)C)NC(=O)[C@H](CC(=O)O)NC(C)=O)CSSC[C@@H](C(N)=O)NC(=O)[C@H](CC(C)C)NC1=O` [UPAR-290, Ac-Asp-Leu-[Cys-Arg-Gln-Tyr-Phe-Pro-Ala-Ile-Leu-Cys]-NH2] (Ac-DLCRQYFPAILC-NH2; disulfide 3-12) gave an IC50 in assay [1] of no more than 10 nM. For the same molecule, at human uPAR (uPAR-Fc), the Kd was less than 1.58 nM.

Molecule `CC[C@H](C)[C@@H]1NC(=O)[C@@H](C)NC(=O)[C@@H]2CCCN2C(=O)[C@H](Cc2ccccc2)NC(=O)[C@H](Cc2ccc(O)cc2)NC(=O)[C@H](CCC(N)=O)NC(=O)[C@H](CCCNC(=N)N)NC(=O)[C@@H](NC(=O)[C@H](CC(C)C)NC(=O)CCCCCNC(=O)CN2CCN(CC(=O)O)CCN(CC(=O)O)CCN(CC(=O)O)CC2)CSSC[C@@H](C(N)=O)NC(=O)[C@H](CC(C)C)NC1=O` [UPAR-291, DOTA-Ahx-Leu-[Cys-Arg-Gln-Tyr-Phe-Pro-ala-Ile-Leu-Cys]-NH2] ({DOTA-Ahx}-LCRQYFP[dA]ILC-NH2; disulfide 2-11) gave an IC50 in assay [1] of no more than 10 nM. The Kd on human uPAR (uPAR-Fc) was less than 1.58 nM.

In turn, `CCCCC(=O)N[C@H]1CSSC[C@@H](CO)NC(=O)[C@H](CCC)NC(=O)[C@H]([C@@H](C)CC)NC(=O)[C@@H]2C[C@@H](O)CN2C(=O)[C@@H]2CCCN2C(=O)[C@H](Cc2ccccc2)NC(=O)[C@H](Cc2ccc(O)cc2)NC(=O)[C@H](CCC(N)=O)NC(=O)[C@H](CCCNC(N)=O)NC1=O` [UPAR-292, Pent-[Cys-Cit-Gln-Tyr-Phe-Pro-Hyp-Ile-Nva-Cysol]-OH] (Pentanoyl-C[Cit]QYFP[Hyp]I[Nva]; linker 1-C via X9) gave an IC50 in assay [1] of no more than 10 nM. For the same molecule, the Kd on human uPAR (uPAR-Fc) was less than 1.58 nM.

Regarding `CC[C@H](C)[C@@H]1NC(=O)[C@@H]2C[C@@H](N)CN2C(=O)[C@@H]2CCCN2C(=O)[C@H](Cc2ccccc2)NC(=O)[C@H](Cc2ccc(O)cc2)NC(=O)[C@H](CCC(N)=O)NC(=O)[C@H](CCCNC(N)=O)NC(=O)[C@@H](NC(=O)CCC(C)C)CSSC[C@@H](C(N)=O)NC(=O)[C@H](CC(C)C)NC1=O` [UPAR-295, iHex-[Cys-Cit-Gln-Tyr-Phe-Pro-Tap-Ile-Leu-Cys]-NH2] ({Pentanoyl(4-Me)}-C[Cit]QYFP[Pro(4R-NH2)]ILC-NH2; disulfide 1-10), the IC50 in assay [1] is no more than 10 nM. The Kd at human uPAR (uPAR-Fc) was less than 1.58 nM.

The values above are taken from EP4610269A1, “UROKINASE PLASMINOGEN ACTIVATOR SURFACE RECEPTOR (UPAR) LIGANDS FOR DIAGNOSTIC OR THERAPEUTIC USE” (3B Pharmaceuticals GmbH, priority 2024, dated 2025).
